Read-outs that look alike come from different tables or passages of the source.
Columns and labels:
[1] = system: olfactory epithelium (nasal turbinates); assay type: in vivo, rats
Excerpt: Compound I and Compound II were also compared directly for intranasal irritation. […] The only endpoint evaluated in this study was histological evaluation of the nasal turbinates.

[2] = system: olfactory epithelium (nasal tissues); experiment: One-week comparative intranasal irritation study in rats (Compound I vs Compound III): nasal histology and tolerability; assay type: in vivo; settings: 1 week
Protocol: This study was conducted to compare potential nasal irritation of Compound I to Compound III when given intranasally to male rats for 1 week. Male rats (10/group) were instilled intranasally with Compound I or Compound III solutions ([…] in 225 mM succinic acid, 0.02% benzalkonium chloride, 1.25% anhydrous dextrose, pH 5.8-6.2) once daily at a dose volume of 100 μL/nostril. Using this dosing paradigm, fixed doses of 5, 15 or 35 mg of test article were delivered daily. As a consequence, dosages normalized to body weight decreased with time as the rats grew. One control group was given succinate vehicle and a sham control group was given saline by intranasal instillation. Parameters evaluated included clinical observations, body weight, food consumption, toxicokinetics, and histological evaluation of nasal tissues.

[3] = 12.5 μL/nostril, 75 mg/ml, 1.875 mg/rat/day (0.134 mg/cm^2)
[4] = 12.5 μL/nostril, 175 mg/ml, 4.375 mg/rat/day (0.313 mg/cm^2)
[5] = 25 μL/nostril, 75 mg/ml, 3.75 mg/rat/day (0.268 mg/cm^2)
[6] = 25 μL/nostril, 175 mg/ml, 8.75 mg/rat/day (0.625 mg/cm^2)
[7] = 100 μL/nostril, 75 mg/ml, 15 mg/rat/day (1.071 mg/cm^2)
[8] = 100 μL/nostril, 175 mg/ml, 35 mg/rat/day (2.500 mg/cm^2)
[9] = nasal instillation 5 mg (0.357 mg/cm^2) once daily
[10] = nasal instillation 15 mg (1.07 mg/cm^2) once daily
[11] = nasal instillation 35 mg (2.50 mg/cm^2) once daily

## Cc1cc(C[C@@H](NC(=O)N2CCC(C3Cc4cccc(F)c4NC3=O)CC2)C(=O)N2CCC(N3CCCCC3)CC2)cc2cn[nH]c12 (stereo partly shown) [Compound II]
[1]; [3]
  Olfactory epithelial toxicity, number of animals with severity Mild: 1
  Olfactory epithelial toxicity, number of animals with severity None: 3
  Olfactory epithelial toxicity, number of animals with severity Slight: 1
[1]; [4]
  Olfactory epithelial toxicity, number of animals with severity Mild: 1
  Olfactory epithelial toxicity, number of animals with severity Minimal: 1
  Olfactory epithelial toxicity, number of animals with severity None: 3
[1]; [5]
  Olfactory epithelial toxicity, number of animals with severity Minimal: 2
  Olfactory epithelial toxicity, number of animals with severity None: 2
  Olfactory epithelial toxicity, number of animals with severity Slight: 1
[1]; [6]
  Olfactory epithelial toxicity, number of animals with severity Minimal: 3
  Olfactory epithelial toxicity, number of animals with severity None: 1
  Olfactory epithelial toxicity, number of animals with severity Slight: 1
[1]; [7]
  Olfactory epithelial toxicity, number of animals with severity Mild: 1
  Olfactory epithelial toxicity, number of animals with severity Slight: 4
[1]; [8]
  Olfactory epithelial toxicity, number of animals with severity Mild: 2
  Olfactory epithelial toxicity, number of animals with severity Moderate: 3

## Cc1cc(C[C@@H](NC(=O)N2CCC(c3cc4ccccc4[nH]c3=O)CC2)C(=O)N2CCC(N3CCCCC3)CC2)cc2cn[nH]c12 [Compound III, reference compound]
[2]; [9]
  Olfactory Epithelial Atrophy, incidence of severity Marked (number of rats): 0
  Olfactory Epithelial Atrophy, incidence of severity Mild (number of rats): 2
  Olfactory Epithelial Atrophy, incidence of severity Minimal (number of rats): 6
  Olfactory Epithelial Atrophy, incidence of severity Moderate (number of rats): 0
  Olfactory Epithelial Atrophy, incidence of severity None (number of rats): 1
[2]; [10]
  Olfactory Epithelial Atrophy, incidence of severity Marked (number of rats): 0
  Olfactory Epithelial Atrophy, incidence of severity Mild (number of rats): 2
  Olfactory Epithelial Atrophy, incidence of severity Minimal (number of rats): 0
  Olfactory Epithelial Atrophy, incidence of severity Moderate (number of rats): 6
  Olfactory Epithelial Atrophy, incidence of severity None (number of rats): 1
[2]; [11]
  Olfactory Epithelial Atrophy, incidence of severity Marked (number of rats): 1
  Olfactory Epithelial Atrophy, incidence of severity Mild (number of rats): 2
  Olfactory Epithelial Atrophy, incidence of severity Minimal (number of rats): 0
  Olfactory Epithelial Atrophy, incidence of severity Moderate (number of rats): 3
  Olfactory Epithelial Atrophy, incidence of severity None (number of rats): 3
